Data from patent US11266626B2, “Reduction of ER-MAM-localized APP-C99 and methods of treating alzheimer's disease” (THE TRUSTEES OF COLUMBIA UNIVERSITY IN THE CITY OF NEW YORK, priority 2015, dated 2022).
“Also recorded” adds a separate entry of the source. Where a name gives a salt, the structure may show the parent alone.

Key:
[1] = test system: WT MEFs and presenilin-mutant (PS-DKO) cells; test: Filipin staining of free cholesterol; format: cell-based, mouse; settings: presenilin-mutant (PS-DKO) cells; CsA 100 nM; SSO 250 nM
Experimental: Cells were washed in PBS and fixed in 3% paraformaldehyde at room temperature for 1 h. After washing in PBS three times, samples were incubated in 1.5 mg/ml glycine in 1×PBS to quench the paraformaldehyde and then incubated in 0.05 mg/ml of filipin in PBS/10% FBS for 2 h at room temperature. Free cholesterol signal was visualized in by microscopy and quantified by ImageJ.

PS-DKO cells [2] = test: Seahorse analysis of mitochondrial respiration (OCR); format: cell-based, mouse; settings: BI 100 nM, myriocin 5 μM, TAPI-1 5 μM, 12-16 h, Aβ40:Aβ42 10:1, 6 ng/ml
Experimental: (§1) Respirometry of cultured cells was performed using the XF24e Extracellular Flux Analyzer (Seahorse Bioscience). Oxygen consumption was measured in basal conditions (Seahorse media with 25 mM glucose and 2 mM pyruvate) and after the sequential addition of 1 μM oligomycin (Complex V inhibitor), 0.75 μM FCCP (uncoupler) and 1 μM rotenone/1 μM antimycin A (Complex I and Complex III inhibitors respectively).
(§2) Respirometry of cultured cells was performed using the XF24e Extracellular Flux Analyzer (Seahorse Bioscience). Oxygen consumption was measured in basal conditions (Seahorse media with 25 mM glucose and 2 mM pyruvate) and after the sequential addition of 1 μM oligomycin (complex V inhibitor), 0.75 μM FCCP (uncoupler), and 1 μM rotenone/1 μM antimycin A (complex I and complex III inhibitors, respectively). All results were averages of five or more biological replicates. Every biological replicate consisted of three technical replicates. For every technical replicate, we plated equal number of cells (25,000 cell/well when MEFs were used, and 50,000 cells/well when human primary fibroblasts were analyzed). The number of cells was also counted after every respirometry assay to correct for cell death. All oxygen consumption (OCR) data were normalized by the number of viable cells or by protein quantity when isolated mitochondria were used.

[3] = test system: mitochondrial respiratory supercomplexes; test: Supercomplex analysis (blue-native gels, in-gel activity and western blot); format: cell-based, mouse
Experimental: Analysis and quantification of mitochondrial respiratory complexes by western blot and enzymatic in-gel activity were carried out as previously reported (Acin-Perez et al., 2008)
Analysis and quantification of mitochondrial respiratory complexes by Western blot and enzymatic in-gel activity were carried out as described (Acin-Perez et al, 2008).

PS-DKO cells [4] = test: Lipidomic analyses of membranes; format: cell-based, mouse; settings: PS-DKO cells; BI 100 nM or myriocin 5 μM
Experimental: (§3) Lipid extracts were prepared via chloroform-methanol extraction, spiked with appropriate internal standards, and analyzed using a 6490 Triple Quadrupole LC/MS system (Agilent Technologies, Santa Clara, Calif.) as described previously (6, 7). Glycerophospholipids and sphingolipids were separated with normal-phase HPLC using an Agilent Zorbax Rx-Sil column (inner diameter 2.1×100 mm) under the following conditions: mobile phase A (chloroform:methanol:1 M ammonium hydroxide, 89.9:10:0.1, v/v) and mobile phase B (chloroform:methanol:water:ammonium hydroxide, 55:39.9:5:0.1, v/v); 95% A for 2 min, linear gradient to 30% A over 18 min and held for 3 min, and linear gradient to 95% A over 2 min and held for 6 min. Quantification of lipid species was accomplished using multiple reaction monitoring (MRM) transitions that were developed in earlier studies (6) in conjunction with referencing of appropriate internal standards: ceramide d18:1/17:0 and sphingomyelin d18:1/12:0 (Avanti Polar Lipids, Alabaster, Ala.).
as §3, with “Lipids were extracted from equal amounts of material (30 μg protein/sample). Lipid extracts” for “Lipid extracts”, “described previously (Chan et al., 2012). Glycerophospholipids and” for “described previously (6, 7). Glycerophospholipids and”, “hydroxide, 89.9:10:0.1, v/v/v) and mobile” for “hydroxide, 89.9:10:0.1, v/v) and mobile”, “hydroxide, 55:39.9:5:0.1, v/v/v); 95% A” for “hydroxide, 55:39.9:5:0.1, v/v); 95% A”, “earlier studies (Chan et al., 2012) in conjunction” for “earlier studies (6) in conjunction”, “Alabaster, Ala.). Values are represented as mole fraction with respect to total lipid (% molarity)” for “Alabaster, Ala.).”
Lipids were extracted from equal amounts of material (30 μg protein/sample). Lipid extracts were prepared via chloroform-methanol extraction, spiked with appropriate internal standards, and analyzed using a 6490 Triple Quadrupole LC/MS system (Agilent Technologies, Santa Clara, Calif.) as described previously (Chan et al, 2012). Glycerophospholipids and sphingolipids were separated with normal-phase HPLC using an Agilent Zorbax Rx-Sil column (inner diameter 2.1×100 mm) under the following conditions: mobile phase A (chloroform:methanol:1 M ammonium hydroxide, 89.9:10:0.1, v/v/v) and mobile phase B (chloroform:methanol:water:ammonium hydroxide, 55:39.9:5:0.1, v/v/v/v); 95% A for 2 min, linear gradient to 30% A over 18 min and held for 3 min, and linear gradient to 95% A over 2 min and held for 6 min. Quantification of lipid species was accomplished using multiple reaction monitoring (MRM) transitions that were developed in earlier studies (Chan et al, 2012) in conjunction with referencing of appropriate internal standards: ceramide d18:1/17:0 and sphingomyelin d18:1/12:0 (Avanti Polar Lipids, Alabaster, Ala., USA). Values are represented as mole fraction with respect to total lipid (% molarity). For this, lipid mass (in moles) of any specific lipid is normalized by the total mass (in moles) of all the lipids measured (Chan et al, 2012). In addition, all of our results were further normalized by protein content.

TRPML1 = TRPML1 (Homo sapiens, UniProt Q9GZU1); settings: Shen, D. et al.; cited from earlier work
Sequence of TRPML1 (Q9GZU1 whole entry, species assumed): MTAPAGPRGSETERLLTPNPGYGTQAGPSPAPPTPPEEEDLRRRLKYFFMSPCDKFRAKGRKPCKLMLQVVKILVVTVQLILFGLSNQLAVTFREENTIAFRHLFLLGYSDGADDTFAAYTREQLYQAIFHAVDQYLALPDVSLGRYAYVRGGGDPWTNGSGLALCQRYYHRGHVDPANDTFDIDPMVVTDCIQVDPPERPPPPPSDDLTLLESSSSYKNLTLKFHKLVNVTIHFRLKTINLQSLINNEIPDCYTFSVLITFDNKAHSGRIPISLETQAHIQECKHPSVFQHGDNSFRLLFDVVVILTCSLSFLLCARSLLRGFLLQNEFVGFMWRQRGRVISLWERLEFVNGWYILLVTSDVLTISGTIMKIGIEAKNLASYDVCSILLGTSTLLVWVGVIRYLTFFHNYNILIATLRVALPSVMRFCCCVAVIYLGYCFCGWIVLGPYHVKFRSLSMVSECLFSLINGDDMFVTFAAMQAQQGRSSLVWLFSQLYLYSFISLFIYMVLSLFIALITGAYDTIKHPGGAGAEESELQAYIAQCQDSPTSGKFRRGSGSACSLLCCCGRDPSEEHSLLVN

γ-secretase = settings: A2A-AR antagonists; Lu, J. et al.; cited from earlier work
[5] = Ghanbarabadi et al.; cited from earlier work
PS-DKO cells [6] = test: Staining of lipid droplets with LipidTox Green; format: cell-based, mouse; settings: BI 100 nM, desipramine 10 μM, GW4869 5 μM, 12-16 h, Gleevec 10 μM
Experimental: Quantification of total cholesterol and cholesteryl esters was performed using the Cholesterol/Cholesteryl Ester Quantitation kit from Calbiochem (428901). Staining of lipid droplets Staining of lipid droplets was performed using HCS LipidTox™ Deep Green neutral lipid stain (Invitrogen H34475) according to the manufacturer's instructions. Lipid droplet staining was quantified using ImageJ. The different values represent the product of the intensity and the area covered by the fluorescent signal above background in every cell examined.
Staining of lipid droplets was performed using HCS LipidTox™ Deep Green neutral lipid stain (Invitrogen H34475) according to the manufacturer's instructions. Lipid droplet staining was quantified using ImageJ. The different values represent the product of the intensity and the area covered by the fluorescent signal above background in every cell examined.

Aβ42:Aβ40 ratio = Aβ42:Aβ40 ratio (ELISA); format: cell-based; settings: PS-mutant cells, desipramine
Experimental: Detection of Aβ40/Aβ42 levels in cell media was performed by ELISA following manufacturer's instructions (WAKO ELISA kit 294-64701 for Aβ40 and 292-64501 for Aβ42).

APP = settings: cited from earlier work; for Aβ: literature
APP-DKO cells = test: Seahorse analysis of mitochondrial respiration (OCR); format: cell-based, mouse; settings: WT and APP-DKO cells, Aβ42 oligomers 0, 5, 10 μM, 24 h, effect only at 10 μM
Experimental: as §1
(§4) To analyze the effect of Aβ addition, a mix of Aβ40/Aβ42 at a ratio 10:1 was added to the cultured cells to a final concentration of 6000 pg/ml for 24 h. For Aβ42 oligomer formation, 5 mM of Aβ42 in DMSO was diluted to 100 μM in ice-cold media, vortexed for 30 seconds, and incubated at 4° C. for 24 h. Aβ42 Oligomers were added to the cultured cells to a final concentration of 5 or 10 μM for 24 h.
as §2
as §4, with “6,000” for “6000”, “s,” for “seconds,”, “Aβ42 Oligomers were added to the cultured cells to a final concentration of 5 or 10 μM for 24 h.” left out

AD mice = settings: cited from earlier work

With cyclosporin A the “free cholesterol levels (filipin staining)” value [1] was “reduces cholesterol levels in presenilin-mutant cells; also recorded: the increased level of cholesterol seen in PS-mutant cells was reversed”.

For `CCCCCCC(=O)CCCCCC/C=C/C[C@@H](O)[C@H](O)[C@@](N)(CO)C(=O)O` [myriocin], the “mitochondrial respiration (initial oxygen consumption rate, OCR)” value (PS-DKO cells [2]) was “reversed the respiratory defect; also recorded: rescued the bioenergetic defect; also recorded: reversed the bioenergetic deficits in these cells”, the “activity of supercomplexes I+III+IV, I+III and III+IV (in-gel complex I and IV activity)” value ([3]; mitochondria from PS-DKO cells incubated with BI or myriocin) was “rescued” and the “assembly of respiratory supercomplexes (blue-native PAGE western blot)” value ([3]; mitochondria from PS-DKO cells, anti-complex I and III antibodies) was “increases the assembly of supercomplexes I+III and I+III+IV”. For the same compound, the ceramide levels (PS-DKO cells [4]) was “significant reductions in ceramide content” and the sphingomyelin levels (PS-DKO cells [4]) was “slight decreases in sphingomyelin”.

For `CC1CC(C)(C)N(C(=O)CN2C(=O)c3ccccc3C2=O)c2ccccc21` (stereo not drawn) [ML-SA1], the “TRPML1-mediated lysosomal Ca2+ release” value (TRPML1) is given as “enhances TRPML1-mediated lysosomal Ca^2+ release” and the cholesterol (TRPML1) is given as “reduces cholesterol”.

For `COCCOc1ccc(N2CCN(CCn3ncc4c3nc(N)n3nc(-c5ccco5)nc43)CC2)cc1` [Preladenant], the Aβ42 (γ-secretase) is given as “increased Aβ42” and the γ-secretase activity (γ-secretase) is given as “increased γ-secretase activity”.

For `CC(C)=CCC/C(C)=C/COc1ccc2ccc(=O)oc2c1` [auraptene, 7-geranyloxycoumarin], the memory [5] is listed as “enhances memory”.

For `CNCCCN1c2ccccc2CCc2ccccc21` [desipramine], the “number of lipid droplets (LDs)” value (PS-DKO cells [6]) was “reduced the accumulation of lipid droplets in PS-DKO cells to near-control levels; also recorded: reduced lipid droplet formation”, the “Aβ42:Aβ40 ratio” value (Aβ42:Aβ40 ratio) was “reduced the Aβ42:Aβ40 ratio” and the “Aβ42:Aβ40 ratio” value (Aβ42:Aβ40 ratio; listed as Desipramine) was “significantly reduced the Aβ42:Aβ40 ratio”.

In the case of `CC(C)(C)NCC(O)c1cc(Cl)c(N)c(Cl)c1` (stereo not drawn) [Clenbuterol], the “Thr668p (APP phosphorylated at Thr668)” value (APP; Chai, G-s. et al.) is listed as “reduced Thr668p”, the α-secretase (APP; Chai, G-s. et al.) is listed as “increased α-secretase” and the Aβ (APP) is listed as “decreased Aβ”.

For `COc1ccc(N2CCOCC2)c2sc(NC(=O)N3CCC(C)(O)CC3)nc12` [Tozadenant], the Aβ42 (γ-secretase) is given as “increased Aβ42” and the γ-secretase activity (γ-secretase) is given as “increased γ-secretase activity”.

With `CC(C)C[C@H](CC(=O)NO)C(=O)N[C@@H](Cc1ccc2ccccc2c1)C(=O)N[C@@H](C)C(=O)NCCN` [TAPI-1] the “mitochondrial respiration (initial oxygen consumption rate, OCR)” value (PS-DKO cells [2]) was “unaffected”.

With `Cc1ccc(NC(=O)c2ccc(CN3CCN(C)CC3)cc2)cc1Nc1nccc(-c2cccnc2)n1` [Gleevec, imatinib mesylate] the “number of lipid droplets (LDs)” value (PS-DKO cells [6]) was “significant reduction of LDs”.

In the case of `O=C(/C=C/c1ccc(/C=C/C(=O)Nc2ccc(C3=NCCN3)cc2)cc1)Nc1ccc(C2=NCCN2)cc1` [GW4869], the “number of lipid droplets (LDs)” value (PS-DKO cells [6]) is reported as “reduced the accumulation of lipid droplets in PS-DKO cells to near-control levels; also recorded: reduced lipid droplet formation”.

For “Aβ42 oligomers: oligomers formed from synthetic Aβ42 peptide, added at 5 or 10 μM”, the “mitochondrial respiration (OCR)” value (APP-DKO cells) was “slightly decreased” and the “mitochondrial respiration (OCR)” value (APP-DKO cells; listed as Aβ oligomers) was “had little effect on respiration”.

In the case of `CCCCCCCC/C=C\CCCCCCCC(=O)ON1C(=O)CC(S(=O)(=O)O)C1=O` (stereo not drawn) [sulfo-N-succinimidyl oleate], the “free cholesterol levels (filipin staining)” value [1] is reported as “reduces cholesterol levels in presenilin-mutant cells; also recorded: equally marked reduction in cellular free cholesterol”.

For `O=C1[C@H](CC[C@H](O)c2ccc(F)cc2)[C@@H](c2ccc(O)cc2)N1c1ccc(F)cc1` [Ezetimibe], the cognition / memory (AD mice) is given as “improves memory in AD mice”.

For `CCCCCCCC[C@H](SCCCCCC)C(=O)Nc1c(SC)cc(C)nc1SC` [CP-113,818], the Aβ (APP) is listed as “reduces Aβ”.

In the case of `O=C(O)CCCc1ccccc1` [PBA, phenylbutyric acid], the “α- and γ-cleavage of APP” value (APP; reference [1]) is given as “stimulates both α- and γ-cleavage of APP”, the cholesterol defects (AD mice) is given as “rescues cholesterol defects” and the cognition / memory (AD mice) is given as “rescues cholesterol defects [4-6] and cognition”.
